According to publication PMC6271241, “Several Human Cyclin-Dependent Kinase Inhibitors, Structurally Related to Roscovitine, As New Anti-Malarial Agents” (Molecules, 2014):
Like-named read-outs stand apart in the source and are kept apart here.

What was measured:
[1] = system: DYRK1A; design: method as in PMID 17850214; conditions: at 1 µM; cited from earlier work
[2] = design: method as in PMID 12809528; conditions: cited from earlier work
[3] = molecular target: CK1δ/ε; assay: CK1δ/ε kinase assay (CKS peptide); conditions: read-out: IC50 CK1δ/ε; 15 µM ATP; Table 1
[4] = system: Pf3D7; assay: [3H]hypoxanthine incorporation growth assay, Pf3D7; format: cell-based, Plasmodium falciparum; conditions: for IC50: Plasmodium falciparum
Procedure: (§1) A selection of 15 molecules 4b–c, 10–13 representing the different 2,6,9-trisubstituted purine series, including newly synthesized products was screened as anti-malarial agents on two different P. falciparum strains, Pf3D7, a standard drug-sensitive African stain, and Pf7G8, a brazilian chloroquino-resistant strain (Figure 3). The compound activity was evaluated during the parasitic erythocytic cycle, by the means of a [^3H] hypoxanthine incorporation assay. It is directly correlated to parasite viability, as described in the experimental section.
(§2) At first, the activity of the fifteen compounds was screened at three different concentrations (10, 50 and 100 µM) on Pf3D7. Chloroquine which is not a kinase inhibitor, but which is the antimalarial reference drug was used as the positive control. […] Chloroquine was again used as a positive control.
(§3) Compounds were tested against synchronous ring-stage parasites of Pf3D7 and Pf7G8 strains. Drugs testing were carried out in 96-well microtiter plates. The chloroquine (CQ) diphosphate was purchased from Sigma (Lyon, France). […] For each assay, each drug dilution was analyzed in triplicate.
(§4) For the in vitro isotopic microtest, 200 µL of the suspension of synchronous parasitized red blood cells with >90% of the parasites at the ring stage (final parasitaemia, 0.3%; final haematocrit, 4%) per well were plated in 96-well plates that contained serial CQ or compounds concentrations. […] The plates were incubated at 37 °C, in an atmosphere of 5% O2, 5% CO2, and 90% N2 for 48 h. Immediately after incubation, plates were frozen and then thawed to lyse the erythrocytes. Cultures were harvested onto glass fiber filters and washed using a cell harvester (FilterMAT; Skatron Instruments, Dalsletta, Norway). The dried fiber filter papers were mixed with 2 mL of scintillation fluid (OptiScint; Perkin-Elmer, Waltham, UK). […] The initial value and the asymptotic result for high concentrations were fixed to 0% and 100%, respectively, available on the web.

[5] = molecular target: T1, CDK5/p25 (Homo sapiens, UniProt Q00535); assay: CDK5/p25 kinase assay ([γ-33P] ATP, histone H1); format: biochemical
T1 construct: made in house
Procedure: (§5) CDK1/cyclin B (M phase starfish oocytes, native), CDK2/cyclin A (human, recombinant) and CDK5/p25 (human, recombinant) were prepared as previously described. […] ATP (3000 Ci/mmol; 10 mCi/mL) in a final volume of 30 µL. After 30 min incubation at 30 °C, 25 µL aliquots of supernatant were spotted onto 2.5 cm × 3 cm pieces of Whatman P81 phosphocellulose paper, and, 20 s later, the filters were washed five times (for at least 5 min each time) in a solution of 10 mL of phosphoric acid/liter of water. The wet filters were counted in the presence of 1 mL of ACS (Amersham, Pittsburgh, PA, USA) scintillation fluid.

[6] = system: Pf7G8; assay: [3H]hypoxanthine incorporation growth assay, Pf7G8; format: cell-based, Plasmodium falciparum; conditions: for IC50: Plasmodium falciparum
Procedure: as §1, §2, §3, §4

[7] = molecular target: GSK-3α/β; assay: GSK-3α/β kinase assay (GS-1 peptide); conditions: read-out: IC50 GSK-3αβ; 15 µM ATP; Table 1; >10 = no activity at 10 µM
[8] = molecular target: CDK1/cyclin B; assay: CDK1/cyclin B kinase assay ([γ-33P] ATP, histone H1); format: biochemical, starfish; conditions: 15 µM ATP, Table 1
Procedure: as §5

[9] = molecular target: CDK1/cyclin B; assay: as above; format: biochemical, starfish; conditions: Table A1; read-out: IC50 on HsCDKs HsCDK1
[10] = molecular target: T2, CDK2/cyclin A (Homo sapiens, UniProt P24941); assay: CDK2/cyclin A kinase assay ([γ-33P] ATP, histone H1); format: biochemical; conditions: 15 µM ATP, Table 1
T2 construct: made in house
Procedure: as §5

[11] = system: CK1δ/ε; design: method as in PMID 18698753; conditions: read-out: IC50 CK1, cited from earlier work
[12] = system: N2A-APP659 cell model; design: method as in PMID 18698753; conditions: dose-dependent; cited from earlier work
[13] = system: CDK1/cyclin B; design: method as in PMID 18698753; conditions: previously reported; cited from earlier work
[14] = system: CK1; design: method as in PMID 10662688; conditions: cited from earlier work
[15] = molecular target: DYRK1A (Homo sapiens, UniProt Q13627); assay: DYRK1A kinase assay (Woodtide); format: biochemical; conditions: 15 µM ATP; Table 1
[16] = Table A1, N.I. = not inhibitor, read-out: IC50 on P. falciparum Strains Pf3D7
[17] = CDK5/p25, 15 µM ATP, Table 1, read-out: IC50 CDK5
[18] = Table A1, N.I. = not inhibitor, read-out: IC50 on P. falciparum Strains Pf7G8
[19] = chloroquino-resistant strain, 48 h, Table 2, read-out: Growth IC50 Pf7G8
[20] = 48 h, drug-sensitive strain, 48 h, Table 2, read-out: Growth IC50 Pf3D7
[21] = Table A1, read-out: IC50 on HsCDKs HsCDK5

T1 sequence (Q00535 whole entry): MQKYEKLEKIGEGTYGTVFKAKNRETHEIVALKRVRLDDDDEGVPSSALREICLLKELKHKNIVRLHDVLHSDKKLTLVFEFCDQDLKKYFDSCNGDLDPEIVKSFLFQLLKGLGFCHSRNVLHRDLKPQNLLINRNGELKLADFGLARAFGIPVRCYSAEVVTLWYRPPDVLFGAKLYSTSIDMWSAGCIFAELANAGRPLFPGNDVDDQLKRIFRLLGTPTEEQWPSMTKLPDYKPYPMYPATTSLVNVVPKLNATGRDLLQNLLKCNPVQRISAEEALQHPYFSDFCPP
T1 sequence (Q15078 99-307 partner limits assumed): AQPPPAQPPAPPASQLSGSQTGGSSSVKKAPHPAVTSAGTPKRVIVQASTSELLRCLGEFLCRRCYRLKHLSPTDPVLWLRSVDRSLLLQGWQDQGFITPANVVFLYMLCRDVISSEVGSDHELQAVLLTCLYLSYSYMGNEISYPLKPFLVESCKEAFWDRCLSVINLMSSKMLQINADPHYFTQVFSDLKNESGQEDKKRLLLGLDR

Row | SMILES | IC50 [3] [nM] | IC50 [5, 17] [nM] | IC50 [7] [nM] | IC50 [8] [nM] | IC50 [9] [nM] | IC50 [5, 21] [nM] | IC50 on P. falciparum Strains Pf3D7 ([4]; Table A1, N.I. = not inhibitor) | IC50 on P. falciparum Strains Pf7G8 ([6]; Table A1, N.I. = not inhibitor) | also measured
1 | CC[C@H](CO)Nc1nc(NCc2ccccc2)c2ncn(C(C)C)c2n1 [Compound 1, (R)-roscovitine] | – | – | – | – | – | – | – | – | remaining DYRK1A kinase activity [1]: 87%; maximal tolerated dose ([2]; human, daily oral dose): 2 g; oral bioavailability ([2]; humans, oral administration): good oral bioavailability
2 | CC[C@@H](CO)Nc1nc(Nc2cccc(-c3cccnc3)c2)c2ncn(C(C)C)c2n1 [Compound 12, (S)-2-(1-Hydroxybut-2-ylamino)-6-[3-(3-pyridyl)phenylamino]-9-iso-propylipurine] | 200 | 100 | > 10000 | 200 | 200 | – | – | – | IC50 [4, 16]: 5370 nM; IC50 [6, 18]: 1550 nM; IC50 [6, 19]: 1550 nM
3 | CC(C)n1cnc2c(Nc3cncnc3)nc(Nc3cncnc3)nc21 [Compound 5] | – | 400 | – | – | – | – | – | – | IC50 [10]: 200 nM
4 | CC[C@H](CO)Nc1nc(Nc2cccc(-c3ccccn3)c2)c2ncn(C(C)C)c2n1 [Compound 3] | 10 | 80 | > 10000 | 220 | – | – | – | – | IC50 [11]: 14 nM; amyloïd-β production [12]: antagonizes amyloïd-β production
5 | CC[C@H](CO)Nc1nc(Nc2ccc(-c3cccnc3)nc2)c2ncn(C(C)C)c2n1 [Compound 10, (R)-2-(1-Hydroxybut-2-ylamino)-6-[6-(3-pyridyl)pyrid-3-ylamino]-9-iso-propylpurine] | 200 | 30 | > 10000 | 10 | 10 | – | N.I. | N.I. | –
6 | NC1=NC(=O)/C(=C2\CCNC(=O)c3[nH]c(Br)cc32)N1 [hymenialdisine] | – | – | – | – | – | – | – | – | IC50 [14]: 30 nM
7 | CC(C)n1cnc2c(Nc3ccc(Br)cc3)nc(Nc3ncccn3)nc21 [Compound 4a] | 1000 | 1000 | 1000 | – | – | – | – | – | IC50 [15]: 3000 nM
8 | CC[C@@H](CO)Nc1nc(Nc2ccc(-c3ccccn3)cc2)c2ncn(C(C)C)c2n1 [Compound 13, (S)-2-(1-Hydroxybut-2-ylamino)-6-[4-(2-pyridyl)phenylamino]-9-iso-propylpurine] | 500 | – | > 10000 | 200 | 200 | – | N.I. | N.I. | IC50 [10]: 200 nM
9 | CC[C@H](CO)Nc1nc(Nc2ccc(-c3ccccn3)cc2)c2ncn(C(C)C)c2n1 [Compound 14] | – | – | – | – | 50 | 30 | N.I. | N.I. | –
10 | CC[C@@H](CO)Nc1nc(Nc2cccc(-c3ccccn3)c2)c2ncn(C(C)C)c2n1 [Compound 11, (S)-2-(1-Hydroxybut-2-ylamino)-6-[3-(2-pyridyl)phenylamino]-9-iso-propylpurine] | 40 | 400 | > 10000 | 800 | 800 | – | – | – | IC50 [4, 20]: 6530 nM; IC50 [4, 16]: 6530 nM; IC50 [6, 18]: 2060 nM; IC50 [6, 19]: 2060 nM
11 | CC(C)n1cnc2c(Nc3cnccn3)nc(Nc3cnccn3)nc21 [Compound 6] | 1100 | – | > 10000 | – | – | – | – | – | IC50 [10]: 2800 nM; IC50 [15]: 500 nM
12 | CC(C)n1cnc2c(Nc3ccccn3)nc(Nc3ncccn3)nc21 [Compound 4b] | > 10000 | > 10000 | > 10000 | – | – | > 10000 | N.I. | N.I. | IC50 [15]: 8000 nM
13 | CC(C)n1cnc2c(Nc3ccncc3)nc(Nc3ncccn3)nc21 [Compound 4d] | 2800 | 7000 | > 10000 | 9300 | – | – | – | – | IC50 [15]: 5200 nM
14 | CC(C)n1cnc2c(Nc3cccnc3)nc(Nc3ncccn3)nc21 [Compound 4c] | > 10000 | 4300 | > 10000 | 3000 | 3000 | – | N.I. | N.I. | IC50 [10]: 1800 nM; IC50 [15]: 8000 nM
15 | CCN(CC)CCCC(C)Nc1ccnc2cc(Cl)ccc12 (centres unmarked) [Chloroquine, chloroquine, reference compound] | – | – | – | – | – | – | – | – | IC50 ([4]; 48 h, read-out: Growth IC50 Pf3D7): 30 nM; IC50 ([6]; 48 h, read-out: Growth IC50 Pf7G8): 180 nM

Second part, led by results:

Row | IC50 [3] [nM] | IC50 [5, 17] [nM] | IC50 [7] [nM] | IC50 [8] [nM] | IC50 [9] [nM] | IC50 [5, 21] [nM] | SMILES | IC50 on P. falciparum Strains Pf3D7 ([4]; Table A1, N.I. = not inhibitor) | IC50 on P. falciparum Strains Pf7G8 ([6]; Table A1, N.I. = not inhibitor) | also measured
16 | – | – | – | – | 700 | 500 | CC[C@@H](CO)Nc1nc(Nc2cccc(-c3ncccn3)c2)c2ncn(C(C)C)c2n1 [Compound 20] | – | – | IC50 [4, 20]: 22200 nM; IC50 [4, 16]: 22200 nM; IC50 [6, 18]: 4660 nM; IC50 [6, 19]: 4660 nM
17 | – | – | – | – | 180 | 50 | CC(C)n1cnc2c(Nc3cccc(-c4cccnc4)c3)nc(Cl)nc21 [Compound 17] | N.I. | N.I. | –
18 | – | – | – | – | 410 | 730 | CC(C)n1cnc2c(Nc3ccc(Br)cc3)nc(-c3cccnc3)nc21 [Compound 18] | N.I. | N.I. | IC50 [13]: 410 nM; IC50 ([11]; previously reported): 100 nM
19 | – | – | – | – | 500 | 270 | CC[C@@H](CO)Nc1nc(Nc2ccc(-c3ncccn3)cc2)c2ncn(C(C)C)c2n1 [Compound 19] | – | – | IC50 [4, 20]: 7130 nM; IC50 [4, 16]: 7130 nM; IC50 [6, 18]: 1820 nM; IC50 [6, 19]: 1820 nM
20 | – | – | – | – | 600 | 600 | CC(C)n1cnc2c(Nc3ccc(Br)cc3)nc(-c3ccncc3)nc21 [Compound 22] | – | – | IC50 [13]: 590 nM; IC50 [4, 20]: 1390 nM; IC50 [4, 16]: 1390 nM; IC50 ([11]; previously reported): 80 nM; IC50 [6, 18]: 990 nM; IC50 [6, 19]: 990 nM
21 | – | – | – | – | 180 | 100 | CC[C@@H](CO)Nc1nc(Nc2ccc(-c3cncnc3)cc2)c2ncn(C(C)C)c2n1 [Compound 16] | N.I. | N.I. | –
22 | – | – | – | – | 40 | 60 | CC[C@H](CO)Nc1nc(Nc2ccc(-c3cncnc3)cc2)c2ncn(C(C)C)c2n1 [Compound 21] | – | – | IC50 [4, 20]: 3050 nM; IC50 [4, 16]: 3050 nM; IC50 [6, 18]: 690 nM; IC50 [6, 19]: 690 nM
23 | – | – | – | – | 180 | 50 | CC[C@H](CO)Nc1nc(Nc2cccc(-c3cccnc3)c2)c2ncn(C(C)C)c2n1 [Compound 15] | N.I. | N.I. | –
